Starred links: 1 amine or outer side, 2 acyl side, 3 side chain; linkers in the order of their positions; H or OH if unused. Positions of bridges follow the written chain, without caps; N, C: chain ends. Non-standard residues stand in square brackets, D forms with d. Residues, ends and D or L forms follow the SMILES beside them. *: point of attachment. Pyridine(3,5-bisCH2) = c1ncc(C[*:2])cc1C[*:1]; X3 = O=C([C@H](Cc1ccccc1[*:3])N[*:1])[*:2]; mXylylene = c1cc(C[*:1])cc(C[*:2])c1; oXylylene = c1ccc(C[*:2])c(C[*:1])c1; Stearoyl = CCCCCCCCCCCCCCCCCC(=O)*; βAla = NCCC(=O)O
Target: Keap1-Maltose Binding Protein (MBP tag) (Homo sapiens, UniProt Q14145)
Sequence (Q14145 whole entry): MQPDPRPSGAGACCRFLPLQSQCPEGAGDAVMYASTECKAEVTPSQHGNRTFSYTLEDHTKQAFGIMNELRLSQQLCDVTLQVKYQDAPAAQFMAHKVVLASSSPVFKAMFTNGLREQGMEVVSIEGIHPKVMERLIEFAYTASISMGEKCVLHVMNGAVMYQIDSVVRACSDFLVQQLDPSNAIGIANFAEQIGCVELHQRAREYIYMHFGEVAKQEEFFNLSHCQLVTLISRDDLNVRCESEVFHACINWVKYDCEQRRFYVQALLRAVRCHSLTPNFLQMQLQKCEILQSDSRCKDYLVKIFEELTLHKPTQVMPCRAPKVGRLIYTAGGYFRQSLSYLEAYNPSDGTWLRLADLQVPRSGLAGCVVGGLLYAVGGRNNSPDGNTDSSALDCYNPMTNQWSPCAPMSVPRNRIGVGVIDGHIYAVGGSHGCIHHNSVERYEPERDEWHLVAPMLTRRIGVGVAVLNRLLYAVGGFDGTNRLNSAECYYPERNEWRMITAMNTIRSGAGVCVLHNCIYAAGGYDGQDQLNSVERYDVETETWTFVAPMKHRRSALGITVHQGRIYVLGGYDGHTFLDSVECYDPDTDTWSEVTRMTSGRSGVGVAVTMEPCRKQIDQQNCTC
Assay: Nrf2-Keap1 HTRF (TR-FRET) binding assay: displacement of biotinylated ETGE peptide from Keap1-MBP
Settings: not given

First: CC(C)C[C@H](NC(=O)[C@@H]1CSCc2c(F)c(F)c(F)c(F)c2CSC[C@H](NC(=O)[C@H](CCC(N)=O)NC(=O)[C@@H](N)CC(C)C)C(=O)N[C@@H](CC(=O)O)C(=O)N2CCC[C@H]2C(=O)N[C@@H](CCC(=O)O)C(=O)N[C@@H]([C@@H](C)O)C(=O)NCC(=O)N[C@@H](CCC(=O)O)C(=O)N1)C(=O)N1CCC[C@H]1C(=O)NCCC(=O)N[C@@H](CCCNC(=N)N)C(=O)N[C@@H](CCCCN)C(=O)N[C@@H](CCCCN)C(=O)N[C@@H](CCCNC(=N)N)C(=O)N[C@@H](CCCNC(=N)N)C(=O)N[C@@H](CCC(N)=O)C(=O)N[C@@H](CCCNC(=N)N)C(=O)N[C@@H](CCCNC(=N)N)C(=O)N[C@@H](CCCNC(=N)N)C(N)=O [Example 56]
Second: CCCCCCCCCCCCCCCCCC(=O)N1CCC[C@H]1C(=O)N[C@@H](CCC(N)=O)C(=O)N[C@H]1CSCc2ccccc2CSC[C@@H](C(=O)N[C@@H](CC(C)C)C(=O)N2CCC[C@@H]2C(N)=O)NC(=O)[C@H](CCC(=O)O)NC(=O)CNC(=O)[C@H]([C@@H](C)O)NC(=O)[C@H](CCC(=O)O)NC(=O)[C@@H]2CCCN2C(=O)[C@H](CC(=O)O)NC1=O [Example 76, {[Stearyl-Pro-Gln-Cys(&^1)-Asp-Pro-Glu-Thr-Gly-Glu-Cys(&^2)-Leu-D-Pro-NH2][&^1(1,2-phenylenediyl)dimethylene^2]}] (Stearoyl-PQCDPETGECL[dP]-NH2; linker 3-10 via oXylylene)
The IC50 of the first is lower: < 1 nM for the first, 1 to 100 nM for the second. The first is the more potent here.

`CCCCCCCCCCCC(=O)N[C@H]1C[C@H]2C(=O)N[C@@H](CCC(N)=O)C(=O)N[C@H]3CSCc4ccccc4CSC[C@H](NC(=O)[C@H](CCC(=O)O)NC(=O)CNC(=O)[C@H]([C@@H](C)O)NC(=O)[C@H](CCC(=O)O)NC(=O)[C@@H]4CCCN4C(=O)[C@H](CC(=O)O)NC3=O)C(=O)N[C@@H](CC(C)C)C(=O)N3CCC[C@@H]3C(=O)N2C1` [Example 85, {[&^1Pro((4S)-NH-Lauryl)-Gln-Cys(&^2)-Asp-Pro-Glu-Thr-Gly-Glu-Cys(&^3)-Leu-D-Pro&^1][&^2(1,2-phenylenediyl)dimethylene&^3]}] and `CCCCCCCCCCCCCC(=O)N[C@H]1C[C@H]2C(=O)N[C@@H](CCC(N)=O)C(=O)N[C@H]3CSCc4ccccc4CSC[C@H](NC(=O)[C@H](CCC(=O)O)NC(=O)CNC(=O)[C@H]([C@@H](C)O)NC(=O)[C@H](CCC(=O)O)NC(=O)[C@@H]4CCCN4C(=O)[C@H](CC(=O)O)NC3=O)C(=O)N[C@@H](CC(C)C)C(=O)N3CCC[C@@H]3C(=O)N2C1` [Example 80, {[&^1Pro((4S)-NH-Miristoyl)-Gln-Cys(&^2)-Asp-Pro-Glu-Thr-Gly-Glu-Cys(&^3)-Leu-D-Pro&^1][&^2(1,2-phenylenediyl)dimethylene&^3]}] cannot be ordered by IC50: < 1 nM for the first, < 1 nM for the second.

Compared with `CC(C)C[C@@H]1NC(=O)[C@@H]2CCCN2C(=O)[C@H](CC(C)C)NC(=O)[C@@H]2CSCc3cccc(c3)CSC[C@H](NC(=O)[C@H](CCC(N)=O)NC1=O)C(=O)N[C@@H](CC(=O)O)C(=O)N[C@@H](C)C(=O)N[C@@H](CCC(=O)O)C(=O)N[C@@H]([C@@H](C)O)C(=O)NCC(=O)N[C@@H](CCC(=O)O)C(=O)N2` [Example 17] (cyclo(AETGECLPLQCD); linker 6-11 via mXylylene), `CCCCCCCCCCCCCCCCCCC(=O)N[C@H]1C[C@H]2C(=O)N[C@@H](CCC(N)=O)C(=O)N[C@H]3CSCc4ccccc4CSC[C@H](NC(=O)[C@H](CCC(=O)O)NC(=O)CNC(=O)[C@H]([C@@H](C)O)NC(=O)[C@H](CCC(=O)O)NC(=O)[C@@H]4CCCN4C(=O)[C@H](CC(=O)O)NC3=O)C(=O)N[C@@H](CC(C)C)C(=O)N3CCC[C@@H]3C(=O)N2C1` [Example 98, {[&^1Pro((4S)-NH-Nonadecanoyl)-Gln-Cys(&^2)-Asp-Pro-Glu-Thr-Gly-Glu-Cys(&^3)-Leu-D-Pro&^1][&^2(1,2-phenylenediyl)dimethylene&^3]}] is lower in IC50: 1 to 100 nM for the first, < 1 nM for the second. The second is the more potent here.

With `CCCCCCCCCCCCCCCCCC(=O)N[C@H]1C[C@H]2C(=O)N[C@@H](CCC(N)=O)C(=O)N[C@H]3CSCc4ccccc4CSC[C@H](NC(=O)[C@H](CCC(=O)O)NC(=O)CNC(=O)[C@H]([C@@H](C)O)NC(=O)[C@H](CCC(=O)O)NC(=O)[C@@H]4C[C@H](F)CN4C(=O)[C@H](CC(=O)O)NC3=O)C(=O)N[C@@H](CC(C)C)C(=O)N3CCC[C@@H]3C(=O)N2C1` [Example 72, {[&^1Pro((4S)-NH-Stearyl)-Gln-Cys(&^2)-Asp-Pro((4S)-F)-Glu-Thr-Gly-Glu-Cys(&^3)-Leu-D-Pro&^1][&^2(1,2-phenylenediyl)dimethylene&^2]}] the IC50 was 1 to 100 nM.

Same assay, conditions: HTRF (TR-FRET); displacement of ETGE-biotin from Keap1-MBP; values banded into grades; read-out: Binding (IC50) ETGE-Keap1

`CCCCCCCCCCCCCCCCCC(=O)NCCC(=O)N[C@@H](CC(C)C)C(=O)N[C@@H](CC(C)C)C(=O)N[C@H]1CSCC2(COC2)CSC[C@@H](C(=O)N[C@@H](CC(C)C)C(=O)N[C@@H](CC(C)C)C(N)=O)NC(=O)[C@H](CCC(=O)O)NC(=O)CNC(=O)[C@H]([C@@H](C)O)NC(=O)[C@H](CCC(=O)O)NC(=O)[C@@H]2CCCN2C(=O)[C@H](CC(=O)O)NC1=O` [Example 99, {[Stearyl-βAla-Leu-Leu-Cys(&^1)-Asp-Pro-Glu-Thr-Gly-Glu-Cys(&^2)-Leu-Leu-NH2][&^1(3,3-oxetanediyl)dimethylene&^2]}] and `CCCCCCCCCCCCCCCCCC(=O)NCCC(=O)N[C@@H](CC(C)C)C(=O)N[C@@H](CCC(N)=O)C(=O)N[C@H]1CSCc2cncc(c2)CSC[C@@H](C(=O)N[C@@H](CC(C)C)C(=O)N2CCC[C@H]2C(N)=O)NC(=O)[C@H](CCC(=O)O)NC(=O)CNC(=O)[C@H]([C@@H](C)O)NC(=O)[C@H](CCC(=O)O)NC(=O)[C@@H]2CCCN2C(=O)[C@H](CC(=O)O)NC1=O` [Example 65, {[Stearyl-βAla-Leu-Gln-Cys(&^1)-Asp-Pro-Glu-Thr-Gly-Glu-Cys(&^2)-Leu-Pro-NH2][&^1(pyridine)3,5-diyldimethylene&^2]}] ({Stearoyl-βAla}-LQCDPETGECLP-NH2; linker 3-10 via Pyridine(3,5-bisCH2)) cannot be ordered by IC50: < 1 nM for the first, < 1 nM for the second.

`CC(=O)N[C@H]1Cc2ccccc2SC[C@@H](C(N)=O)NC(=O)[C@H](CCC(=O)O)NC(=O)CNC(=O)[C@H]([C@@H](C)O)NC(=O)[C@H](CCC(=O)O)NC(=O)[C@H](CCC(=O)O)NC(=O)[C@H](CC(=O)O)NC1=O` [Example 23, Acetyl-Phe(o-&^1)-Asp-Glu-Glu-Thr-Gly-Glu-Cys(&^1)-NH2] (Ac-[X3]DEETGEC-NH2; thioether 1-8) and `CCCCCCCCCCCCCCCCCC(=O)NCCC(=O)N[C@@H](CC(C)C)C(=O)N[C@@H](CCC(N)=O)C(=O)N[C@H]1CSCc2cccc(c2)CSC[C@@H](C(=O)N[C@@H](CC(C)C)C(=O)N2CCC[C@H]2C(=O)O)NC(=O)[C@H](CCC(=O)O)NC(=O)CNC(=O)[C@H]([C@@H](C)O)NC(=O)[C@H](CCC(=O)O)NC(=O)[C@H](C)NC(=O)[C@H](CC(=O)O)NC1=O` [Example 39, {[Stearyl-βAla-Leu-Gln-Cys(&^1)-Asp-Ala-Glu-Thr-Gly-Glu-Cys(&^2)-Leu-Pro-OH][&^1(1,3-phenylenediyl)dimethylene&^2]}] ({Stearoyl-βAla}-LQCDAETGECLP-OH; linker 3-10 via mXylylene) fall in the same range of IC50: 1 to 100 nM for the first, 1 to 100 nM for the second.

`CC(C)C[C@H](NC(=O)[C@@H]1CSCc2cccc(c2)CSC[C@H](NC(=O)[C@H](CCC(N)=O)NC(=O)[C@@H](N)CC(C)C)C(=O)N[C@@H](CC(=O)O)C(=O)N[C@@H](C)C(=O)N[C@@H](CCC(=O)O)C(=O)N[C@@H]([C@@H](C)O)C(=O)NCC(=O)N[C@@H](CCC(=O)O)C(=O)N1)C(=O)N1CCC[C@H]1C(=O)NCCC(=O)N[C@@H](Cc1ccc(O)cc1)C(=O)N[C@@H](C)C(=O)N[C@@H](CCCNC(=N)N)C(=O)N[C@@H](C)C(=O)N[C@@H](C)C(=O)N[C@@H](C)C(=O)N[C@@H](CCCNC(=N)N)C(=O)N[C@@H](CCC(N)=O)C(=O)N[C@@H](C)C(=O)N[C@@H](CCCNC(=N)N)C(=O)N[C@@H](C)C(N)=O` [Example 15] (H-LQCDAETGECLP[βAla]YARAAARQARA-NH2; linker 3-10 via mXylylene) and `CC(C)C[C@H](NC(=O)[C@@H]1CSCc2ccccc2CSC[C@H](NC(=O)[C@H](CCC(N)=O)NC(=O)[C@@H](N)CC(C)C)C(=O)N[C@@H](CC(=O)O)C(=O)N2CCC[C@H]2C(=O)N[C@@H](CCC(=O)O)C(=O)N[C@@H]([C@@H](C)O)C(=O)NCC(=O)N[C@@H](CCC(=O)O)C(=O)N1)C(=O)N1CCC[C@H]1C(=O)NCCC(=O)N[C@@H](CCCNC(=N)N)C(=O)N[C@@H](CCCCN)C(=O)N[C@@H](CCCCN)C(=O)N[C@@H](CCCNC(=N)N)C(=O)N[C@@H](CCCNC(=N)N)C(=O)N[C@@H](CCC(N)=O)C(=O)N[C@@H](CCCNC(=N)N)C(=O)N[C@@H](CCCNC(=N)N)C(=O)N[C@@H](CCCNC(=N)N)C(N)=O` [Example 34] fall in the same range of IC50: 1 to 100 nM for the first, 1 to 100 nM for the second.

`CCCCCCCCCCCCCCCCCC(=O)NCCC(=O)N[C@@H](CCCCN)C(=O)N[C@@H](CCCCN)C(=O)N[C@H]1CSCc2ccccc2CSC[C@@H](C(=O)N[C@@H](CC(C)C)C(=O)N2CCC[C@H]2C(N)=O)NC(=O)[C@H](CCC(=O)O)NC(=O)CNC(=O)[C@H]([C@@H](C)O)NC(=O)[C@H](CCC(=O)O)NC(=O)[C@@H]2CCCN2C(=O)[C@H](CC(=O)O)NC1=O` [Example 57, {[Stearyl-βAla-Lys-Lys-Cys(&^1)-Asp-Pro-Glu-Thr-Gly-Glu-Cys(&^2)-Leu-Pro-NH2][&^1(1,2-phenylenediyl)dimethylene&^2]}] ({Stearoyl-βAla}-KKCDPETGECLP-NH2; linker 3-10 via oXylylene) and `CCCCCCCCCCCCCCCCCC(=O)NCCC(=O)N[C@@H](CCCCN)C(=O)N[C@@H](CCC(N)=O)C(=O)N[C@H]1CSCc2ccccc2CSC[C@@H](C(=O)N[C@@H](CC(C)C)C(=O)N2CCC[C@H]2C(N)=O)NC(=O)[C@H](CCC(=O)O)NC(=O)CNC(=O)[C@H]([C@@H](C)O)NC(=O)[C@H](CCC(=O)O)NC(=O)[C@@H]2CCCN2C(=O)[C@H](CC(=O)O)NC1=O` [Example 47, {[Stearyl-βAla-Lys-Gln-Cys(&^1)-Asp-Pro-Glu-Thr-Gly-Glu-Cys(&^2)-Leu-Pro-NH2][&^1(1,2-phenylenediyl)dimethylene&^2]}] cannot be ordered by IC50: < 1 nM for the first, < 1 nM for the second.

`CCCCCCCCCCCCCCCCCC(=O)N[C@H]1C[C@H]2C(=O)N[C@@H](CCC(N)=O)C(=O)N[C@H]3CSCC4(COC4)CSC[C@H](NC(=O)[C@H](CCC(=O)O)NC(=O)CNC(=O)[C@H]([C@@H](C)O)NC(=O)[C@H](CCC(=O)O)NC(=O)[C@@H]4CSCN4C(=O)[C@H](CC(=O)O)NC3=O)C(=O)N[C@@H](CC(C)C)C(=O)N3CCC[C@@H]3C(=O)N2C1` [Example 97, {[&^1Pro((4S)-NH-Stearyl)-Gln-Cys(&^2)-Asp-Thz-Glu-Thr-Gly-Glu-Cys(&^3)-Leu-D-Pro&^1][&^2(3,3-oxetanediyl)dimethylene&^3]}] was tested, and the IC50 was < 1 nM.
